Reference: patent publication US4031211A, “Adriamycin esters, their preparation and use” (priority 1975, dated 1977)

Assays:
Ascites sarcoma 180 = assay: Antitumor effect on ascites sarcoma 180 in mice
Procedure: (§1) The compounds according to the invention were tested on several in vitro systems and experimental mouse tumors, in comparison with adriamycin.

L 1210 leukemia = assay: Antitumor effect on L 1210 leukemia in mice
Procedure: as §1

[1] = tested on: experimental mouse tumors; assay: Antitumor/therapeutic activity and toxicity in experimental mouse tumors, overall statements; type: in vivo
Gross leukemia = assay: Antitumor effect on Gross leukemia in mice
Procedure: as §1

Moloney sarcoma virus = assay: Inhibition of Moloney sarcoma virus-induced foci in mouse embryo fibroblasts; type: cell-based; settings: text on Table 6, in vitro
Procedure: ^2 Inhibition of Moloney sarcoma virus-induced foci in mouse embryo
fibroblasts proliferation (treatment per 72 hours)

[2] = Table 4, i.p. on day 1, 2 mg./kg.
[3] = Table 4, i.p. on day 1, 4 mg./kg.
[4] = Table 4, i.p. on day 1, 8 mg./kg.
[5] = Table 5, first experiment, iv, days 1,2,3, 6 mg./kg.

`CCCCCC(=O)OCC(=O)OCC(=O)C1(O)Cc2c(O)c3c(c(O)c2C(OC2CC(N)C(O)C(C)O2)C1)C(=O)c1c(OC)cccc1C3=O.Cl` (stereo not shown) [adriamycin-14-0-hexanoyl glycolate, Adriamycin-14-0-Hexanoyl Glycolate Hydrochloride] was tested. Which LTS (Ascites sarcoma 180; [2]) did it give?
Its LTS is 1/10.

And the TC (Ascites sarcoma 180; [2])?
The TC was 250%.

And the LTS (Ascites sarcoma 180; [3])?
The LTS was 5/10.

And the TC (Ascites sarcoma 180; [3])?
The TC was 493%.

And the LTS (Ascites sarcoma 180; [4])?
The LTS was 3/10.

What about the TC (Ascites sarcoma 180; [4]) of the same compound?
The TC was 346%.

What about the TC (Ascites sarcoma 180; Table 4, i.p. on day 1, 16 mg./kg.) of the same compound?
Its TC is 128%.

And the TC (L 1210 leukemia; [2])?
The TC was 133%.

And the TC (L 1210 leukemia; [3])?
The TC was 144%.

And the LTS (L 1210 leukemia; [4])?
Its LTS is 1/9.

What about the TC (L 1210 leukemia; [4]) of the same compound?
The TC was 155%.

And the “toxicity compared with adriamycin” value [1]?
The value was “less toxic”.

What about the “activity compared with adriamycin” value ([1]; tumor not given) of the same compound?
Its value is “as active as adriamycin”.

`CCCCCC(=O)SCC(=O)OCC(=O)C1(O)Cc2c(O)c3c(c(O)c2C(OC2CC(N)C(O)C(C)O2)C1)C(=O)c1c(OC)cccc1C3=O.Cl` (stereo not shown) [adriamycin-14-0-hexanoyl thioglycolate, Adriamycin-14-0-Hexanoyl Thioglycolate Hydrochloride] was tested. Which “antitumor effect compared with adriamycin” value (Ascites sarcoma 180) did it give?
Its value is “marked anti-tumor effect, slightly lower than that of adriamycin”.

What about the LTS (Ascites sarcoma 180; Table 3, ip, day 1, 2 mg./kg.) of the same compound?
The LTS was 1/10.

What about the TC (Ascites sarcoma 180; Table 3, ip, day 1, 2 mg./kg.) of the same compound?
Its TC is 153%.

What about the TOX (Ascites sarcoma 180; Table 3, ip, day 1, 2 mg./kg.) of the same compound?
Its TOX is 1/10.

And the LTS (Ascites sarcoma 180; Table 3, ip, day 1, 4 mg./kg.)?
The LTS was 2/10.

And the TC (Ascites sarcoma 180; Table 3, ip, day 1, 4 mg./kg.)?
Its TC is 196%.

What about the TOX (Ascites sarcoma 180; Table 3, ip, day 1, 4 mg./kg.) of the same compound?
The TOX was 1/10.

What about the LTS (Ascites sarcoma 180; Table 3, ip, day 1, 8 mg./kg.) of the same compound?
The LTS was 2/10.

What about the TC (Ascites sarcoma 180; Table 3, ip, day 1, 8 mg./kg.) of the same compound?
The TC was 177%.

What about the TC (Ascites sarcoma 180; Table 3, ip, day 1, 16 mg./kg.) of the same compound?
Its TC is 188%.

What about the TOX (Ascites sarcoma 180; Table 3, ip, day 1, 16 mg./kg.) of the same compound?
The TOX was 6/10.

What about the “antitumor activity compared with adriamycin” value (L 1210 leukemia) of the same compound?
The value was “marked anti-tumor effect, slightly lower than that of adriamycin”.

What about the TC (L 1210 leukemia; Table 3, ip, day 1, 4 mg./kg.) of the same compound?
The TC was 133%.

And the TC (L 1210 leukemia; Table 3, ip, day 1, 8 mg./kg.)?
The TC was 155%.

And the LTS (L 1210 leukemia; Table 3, ip, day 1, 16 mg./kg.)?
The LTS was 2/9.

And the TC (L 1210 leukemia; Table 3, ip, day 1, 16 mg./kg.)?
The TC was 170%.

And the “toxicity compared with adriamycin” value [1]?
The value was “less toxic”.

Which results are given for `CCCCCCCCCCCC(=O)OCC(=O)OCC(=O)C1(O)Cc2c(O)c3c(c(O)c2C(OC2CC(N)C(O)C(C)O2)C1)C(=O)c1c(OC)cccc1C3=O.Cl` (stereo not shown) [adriamycin-14-0-lauroyl glycolate, Adriamycin-14-0-Lauroyl Glycolate Hydrochloride]?
number of long term survivors compared with adriamycin (Ascites sarcoma 180): higher number of long term survivors; LTS (Ascites sarcoma 180; Table 5, ip, day 1, 2 mg./kg.): 4/10; TC (Ascites sarcoma 180; Table 5, ip, day 1, 2 mg./kg.): 436%; LTS (Ascites sarcoma 180; Table 5, ip, day 1, 4 mg./kg.): 8/10; TC (Ascites sarcoma 180; Table 5, ip, day 1, 4 mg./kg.): 493%; TC (Ascites sarcoma 180; Table 5, ip, day 1, 8 mg./kg.): 385%; TC (Ascites sarcoma 180; Table 5, ip, day 1, 16 mg./kg.): 242%; TC (L 1210 leukemia; Table 5, ip, day 1, 2 mg./kg.): 135%; TC (L 1210 leukemia; Table 5, ip, day 1, 4 mg./kg.): 141%; TC (L 1210 leukemia; Table 5, ip, day 1, 8 mg./kg.): 165%; LTS (L 1210 leukemia; Table 5, ip, day 1, 16 mg./kg.): 1/10; TC (L 1210 leukemia; Table 5, ip, day 1, 16 mg./kg.): 200%; increase of the median survival time compared with adriamycin (Gross leukemia): higher increase of the median survival time than does adriamycin; TC (Gross leukemia; Table 5, first experiment, iv, days 1,2,3, 4.5 mg./kg.): 136%; LTS (Gross leukemia; [5]): 2/10; TC (Gross leukemia; [5]): 257%; TC (Gross leukemia; Table 5, first experiment, iv, days 1,2,3, 7.5 mg./kg.): 221%; TC (Gross leukemia; Table 5, first experiment, iv, days 1,2,3, 9 mg./kg.): 128%; TC (Gross leukemia; Table 5, second experiment, iv, days 1,2,3, 6 mg./kg.): 193%; TC (Gross leukemia; Table 5, second experiment, iv, days 1,2,3, 7.5 mg./kg.): 214%; toxicity compared with adriamycin [1]: less toxic than adriamycin; activity on Moloney Sarcoma Virus (Moloney sarcoma virus): most active among all of them
